Read-outs that look alike come from different tables or passages of the source.

The source of these data is US5010074A, “Novel benzazepine derivatives” (Novo Nordisk A/S, priority 1988, dated 1991).

The target of one series is T1, dopamine D1 receptor (Rattus norvegicus, UniProt P18901).
T1 construct: homogenates from rat striatum; from tissue; host or cells: rat striatum homogenate
The series is described as follows: binding to dopamine D1 receptor in homogenates from rat striatum. An excerpt:
Ki is the affinity of tested compounds for the dopamine D1 receptor.

A short description of series [1]: antagonism of methylphenidate-induced stereotyped gnawing in mice. The settings on record: mouse, in vivo. From the text:
(§1) Following the method of Pedersen, V. and Christensen, A.V.: "Antagonism of methylphenidate-induced stereotyped gnawing in mice", Acta Pharmacol. et Toxicol. 31: 488-496, 1972, antagonism of dopamine-dependent, methyl-phenidate-induced gnawing behaviour of mice, was used to assess the effects of the present D-1 antagonists. Further, the ratio of ED50 values obtained using i.v. administration and oral administration, respectively, was taken as an index of the bioavailability of the test drugs.

The subject of series [2] is methyl-phenidate-induced gnawing behaviour of mice. The series is described as above. The settings on record: Mus musculus.
From the text: as §1

The next series can be described thus: in vivo. As to conditions: dog, po. More on the design: species or system mongrel dogs. The protocol:
As already mentioned, the benzazepines of the general formula given in Table II with X representing halogen have a low oral bioavailability. […] Some test results are stated in the following.
The benzazepines are administered orally to dogs and subsequently samples of their blood plasma are analysed for the compound by a specific HPLC-method. The area under the curve showing the oral plasma concentration versus time is calculated. This area is designated […].
The absolute oral bioavailability, F, is calculated as the ratio between the area representing the oral dose and the area for the intravenous dose according to the formula [formula]

The conditions of series [3]: in words; Life Sci. 34 (1984) 1529; cited from earlier work.
A further series has as its system D1 dopamine. As to conditions: in words; Eur.J.Pharmacol. 91 (1983) 153; cited from earlier work.
The mark [4] stands for this setting: Table I, rat striatum homogenates, (+) enantiomere or racemic mixtures, read-out: Ki Dopamine D1 receptor.
[5] abbreviates: Table II, unit inferred, read-out: Ki.

T1 sequence (P18901 whole entry): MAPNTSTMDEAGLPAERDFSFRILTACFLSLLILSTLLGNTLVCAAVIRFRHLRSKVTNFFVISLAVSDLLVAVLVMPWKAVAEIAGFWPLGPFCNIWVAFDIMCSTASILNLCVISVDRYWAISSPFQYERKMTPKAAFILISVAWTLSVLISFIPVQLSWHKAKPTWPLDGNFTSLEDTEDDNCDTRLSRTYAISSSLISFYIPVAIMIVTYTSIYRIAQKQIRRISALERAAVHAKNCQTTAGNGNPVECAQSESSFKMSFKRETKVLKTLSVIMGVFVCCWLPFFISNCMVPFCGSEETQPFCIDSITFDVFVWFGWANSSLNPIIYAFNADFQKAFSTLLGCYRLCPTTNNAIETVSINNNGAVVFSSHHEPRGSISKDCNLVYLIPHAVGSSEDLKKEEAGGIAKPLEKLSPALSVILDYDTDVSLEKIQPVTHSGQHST

For orientation: Ki means the equilibrium dissociation constant of an inhibitor or competing ligand from its target. Broadly, the ED50 is the dose that gives a 50% effect, or the effect in half of the subjects. For `CN1CCc2cc([N+](=O)[O-])c(O)cc2[C@@H](c2ccccc2)C1` [Example 4, (R)-7-hydroxy-3-methyl-8-nitro-5-phenyl-2,3,4,5-tetrahydro-1H-3-benzazepine], the Ki on dopamine D1 receptor (setting [4]) and at dopamine D1 receptor (setting [5]) was 13 nM each time. In addition, the selectivity ratio in series [1] stood at 2.2. For the same compound, the 50% effective dose (ED50) in series [2] (iv, read-out: ED50 i.v.) was found to be 5.4 mg/kg; in series [2] (po, read-out: ED50 p.o.), 11.9 mg/kg.

The bioavailability is dose-corrected exposure relative to a reference, in per cent. The low end stands for little systemic uptake, the high end for much systemic uptake. `CN1CCc2cc(Cl)c(O)cc2C(c2cccc3c2OCC3)C1` (stereo not shown) [8-chloro-7-hydroxy-3-methyl-5-(2,3-dihydrobenzofuran-7-yl)-2,3,4,5-tetrahydro-1H-3-benzazepine, reference compound]: the Ki at dopamine D1 receptor (setting [5]) turned out to be 0.2 nM. For the same compound, the selectivity ratio in series [1] came out at 75. The ED50 in series [2] (iv, read-out: ED50 i.v.) came out at 0.06 mg/kg; in series [2] (po, read-out: ED50 p.o.), 4.5 mg/kg. Moreover, the bioavailability in the series “in vivo” was 5.5%.

Take `CN1CCc2cc([N+](=O)[O-])c(O)cc2[C@@H]2c3ccccc3CC[C@H]21` (relative stereo) [Example 7, trans-[6,7,7a,8,9,13b]-hexahydro-2-hydroxy-7-methyl-3-nitro-5H-benzo[d]naphto[2,1-b]azepine]: the inhibition constant Ki at dopamine D1 receptor (setting [4]) came out at 169 nM.

`Cc1ccccc1C1CN(C)CCc2cc([N+](=O)[O-])c(O)cc21` (stereo not shown) [Example 3, 7-hydroxy-3-methyl-8-nitro-5(2-methyl-phenyl)-2,3,4 5-tetrahydro-1H-3-benzazepine]: on dopamine D1 receptor (setting [4]), the inhibition constant Ki is 28 nM.

For the compound `CN1CCc2cc([N+](=O)[O-])c(O)cc2C(c2ccc3c(c2)CCC3)C1` (stereo not shown) [Example 6, 7-hydroxy-5-(5-indanyl)-3-methyl-8-nitro-2,3,4,5-tetrahydro-1H-3-benzazepine], the Ki on dopamine D1 receptor (setting [4]) amounted to 88 nM.

`CN1CCc2cc(Cl)c(O)cc2[C@@H](c2ccccc2)C1` [SCH 23390, (R)-8-chloro-7-hydroxy-2,3,4,5-tetrahydro-3-methyl-5-phenyl-1H-3-benzazepine]: the median effective dose (ED50) in series [2] (iv, read-out: ED50 i.v.) came out at 0.017 mg/kg. Further, the ED50 in series [2] (po, read-out: ED50 p.o.) was 6.5 mg/kg. For the same compound, in series [3], the “bioavailability after oral administration” value is on record as “poor bioavailability after oral administration” and the duration of action result is on record as “short duration of action”. In addition, the D1 dopamine antagonism result with D1 dopamine was “selective D1 dopamine antagonist”.

Regarding `CN1CCc2cc([N+](=O)[O-])c(O)cc2C(c2cccc3c2OCC3)C1` (single isomer, unassigned; (+)) [Example 5, (+)-5-(2,3-dihydrobenzofuran-7-yl)-7-hydroxy-3-methyl-8-nitro-2,3,4,5-tetrahydro-1H-3-benzazepine], the Ki on dopamine D1 receptor (setting [4]) stood at 11 nM; at dopamine D1 receptor (setting [5]) it was 4.6 nM. Further, the selectivity ratio in series [1] was 17.3. Moreover, the ED50 in series [2] (iv, read-out: ED50 i.v.) is 0.11 mg/kg; in series [2] (po, read-out: ED50 p.o.), 1.9 mg/kg. This compound came in with a bioavailability in “in vivo” of 65%.

With `CN1CCc2cc([N+](=O)[O-])c(O)cc2C(c2ccccc2F)C1` (stereo not shown) [Example 1, 5-(2-fluorophenyl)-7-hydroxy-3-methyl-8-nitro-2,3,4,5-tetrahydro-1H-3-benzazepine], the Ki on dopamine D1 receptor (setting [4]) was 42 nM.
